System: Boophilus microplus, Biarra-Stamm
Experiment: In vitro tick test: inhibition of egg laying after dipping adult engorged female ticks
Conditions: Rhipicephalus microplus, 480 h, resistant strain, ticks dipped for 1 minute, read after 20 days, read-out: 50 % Hemmung bei einer Wirkstoff-konzentration in ppm a.i.von
Excerpt: Lösungsmittel: 35 Gewichtsteile Ethylenglykolmonomethylether 35 Gewichtsteile Nonylphenolpolyglykolether
Zwecks Herstellung einer geeigneten Formulierung vermischt man drei Gewichtsteile Wirkstoff mit sieben Teilen des oben angegebenen Lösungsmittel-Emulgator-Gemisches und verdünnt das so erhaltene Emulsionskonzentrat mit Wasser auf die jeweils gewünschte Konzentration.
In diese Wirkstoffzubereitungen werden adulte, vollgesogene Zeckenweibchen der Art Boophilus microplus (resistent) eine Minute lang getaucht. Nach dem Tauchen von je 10 weiblichen Exemplaren überführt man diese in Petrischalen, deren Boden mit einer entsprechend großen Filterscheibe belegt ist.
Nach 20 Tagen wird die Wirksamkeit der Wirkstoffzubereitung bestimmt durch Ermittlung der Hemmung der Eiablage gegenüber unbehandelten Kontrollzecken. Die Wirkung drückt man in Prozent aus, wobei 100 % bedeutet, daß keine Eier mehr abgelegt wurden und 0 % besagt, daß die Zecken Eier in normaler Menge ablegten.
Untersuchter Wirkstoff, geprüfte Konzentration, getestete Parasiten und erhaltene Befunde gehen aus der folgenden Tabelle 1 hervor.

`Cc1cc(Cl)ccc1NC(=S)N(C)C` [Chloromethiuron] was tested, and the IC50 was over 5000 µg/mL.

Reference: patent publication EP0073960A1, “2-Arylhydrazino-2-imidazolines, their acyl derivatives, process for their preparation and their use in the control of endoparasites and ectoparasites” (BAYER AG, priority 1981, dated 1983)
